{
  "source": "patent US10676436B2",
  "about": "“NLRX1 ligands” (Landos Biopharma, Inc., priority 2018, dated 2020)",
  "key": {"[1]": {"system": "peripheral blood mononuclear cells (PBMCs) of ulcerative colitis patients", "test": "Ex vivo treatment of PBMCs of ulcerative colitis patients, flow cytometry", "assay_type": "cell-based, human", "protocol": "(§1) Samples were obtained from male and female donors clinically categorized as having moderate to severe disease. Age and current medications were not used as exclusion criteria. Whole blood was collected into heparinized vacuum tubes. Whole blood was diluted 1:3 volumes with sterile phosphate buffered saline. LeucoSep (Greiner) were prepared by addition of Lymphocyte Separation Media followed by 15 second centrifugation at max speed. Diluted whole blood was added to LeucoSep tubes. After centrifugation (2000×g, 20 min), PBMCs were collected from the interphase by Pasteur pipette. Remaining red blood cells were lysed by hypotonic lysis and suspension was filtered through a […] cell strainer. PBMCs were washed and re-suspended in sterile cell culture media, RPMI containing 10% fetal bovine serum, 2.5% Hepes solution, 1% L-glutamine, 1% penicillin/streptomycin, 1% sodium pyruvate, and 1% essential amino acids (complete RPMI).\n(§2) Target cells were incubated for 24 h in complete RPMI culture media at 37° C. Cells were incubated in the presence of NX-13 ranging in concentration from 1 nM to 100 nM. NX-13 stock solution was prepared at 100 mM in dimethyl sulfoxide (DMSO) and diluted to desired concentration in culture media. DMSO concentrations were adjusted to be equal across all doses and vehicle treatments. Six hours prior to assay, cells were stimulated with phorbol 12-myristate 13-acetate (PMA) and ionomycin to stimulate cellular activation. Cells were assayed for desired data at 24 h.\n(§3) Prior to collection, cells were incubated BD GolgiStop (2 μL GolgiStop to 3 mL of total media) to allow intracellular accumulation of cytokines. Cells were live stained with extracellular (CD45, CD3, CD4, CD8, CD11b) and intracellular (FOXP3, IL-10, IL-4, IFNγ, TNFα) in a sequential manner. Data was acquired on a BD FACs Celesta and analyzed using FACSDiva. Non-viable and non-singlet cells were excluded from analysis. Data is presented as percentage of CD45+ cells or % viable, singlets."}, "Human NLRX1 (NLRX1-WT)": {"target": "T1, Human NLRX1 (NLRX1-WT) (Homo sapiens, UniProt Q86UT6)", "T1 construct": "made in house; host or cells: Pichia pastoris", "T1 sequence (Q86UT6 87-975)": "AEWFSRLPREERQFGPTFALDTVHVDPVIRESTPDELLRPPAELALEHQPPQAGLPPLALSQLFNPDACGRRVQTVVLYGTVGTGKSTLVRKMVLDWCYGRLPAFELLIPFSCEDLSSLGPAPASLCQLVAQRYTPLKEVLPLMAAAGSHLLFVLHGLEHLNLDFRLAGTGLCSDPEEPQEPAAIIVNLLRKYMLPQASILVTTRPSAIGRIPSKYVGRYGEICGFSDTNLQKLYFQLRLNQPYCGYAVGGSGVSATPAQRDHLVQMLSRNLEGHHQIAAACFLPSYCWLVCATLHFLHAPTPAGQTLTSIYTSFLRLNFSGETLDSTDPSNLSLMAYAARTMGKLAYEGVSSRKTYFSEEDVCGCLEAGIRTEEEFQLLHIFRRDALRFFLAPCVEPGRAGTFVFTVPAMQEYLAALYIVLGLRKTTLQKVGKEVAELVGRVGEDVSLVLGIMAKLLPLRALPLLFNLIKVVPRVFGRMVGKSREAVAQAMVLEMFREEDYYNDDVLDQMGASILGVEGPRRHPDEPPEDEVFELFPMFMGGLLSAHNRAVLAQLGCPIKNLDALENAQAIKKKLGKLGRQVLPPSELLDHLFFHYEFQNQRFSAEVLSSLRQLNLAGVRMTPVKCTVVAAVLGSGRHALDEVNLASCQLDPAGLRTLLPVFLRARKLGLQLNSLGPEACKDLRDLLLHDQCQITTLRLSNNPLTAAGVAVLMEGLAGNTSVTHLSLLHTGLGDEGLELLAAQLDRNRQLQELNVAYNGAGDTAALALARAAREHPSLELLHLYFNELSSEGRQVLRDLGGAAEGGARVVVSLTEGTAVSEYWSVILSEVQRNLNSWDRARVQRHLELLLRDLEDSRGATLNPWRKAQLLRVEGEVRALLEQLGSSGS", "test": "Surface plasmon resonance binding to NLRX1-WT", "protocol": "NLRX1 production and purification. Human NLRX1 (www.uniprot.org; UniProtKB—Q86UT6 (NLRX1 HUMAN)) was cloned into E. coli, amplified and transfected in Pichia pastoris. P. pastoris was plated onto adenine selective media. Stable transfected colonies were selected and grown within YPD broth at 30° C. for 24 hours, 240 RPM shaking. Starter culture was used to inoculate base media (1% yeast extract, 2% peptone, 1% sorbitol, 2% yeast nitrogen base) containing biotin and buffered with potassium phosphate. Inoculated base media was incubated for 48 hours at 30° C., 240 RPM. P. pastoris was then pelleted by centrifugation and resuspended in expression media (1% sorbitol, 2% yeast nitrogen base) containing biotin and buffered with potassium phosphate. Culture was induced daily for protein production through addition of methanol and incubated for a total of 4 days at 28° C., 240 RPM. After incubation, cells were pelleted by centrifugation and lysed by sonication. Recombinant NLRX1 protein was purified by fast protein liquid chromatography (AktaPrime) using immobilized metal affinity chromatography. Fractions of protein were eluted in 1 mL aliquots and evaluated for NLRX1 content. A mutated NLRX1 protein was generated using similar methods to disrupt binding within the predicted binding site through altering four residues to alanine (D677A, F680A, F681A, and E684A).\nA Biacore T200 was used to evaluate binding to the NLRX1 protein. NLRX1-WT and NLRX1-Mutant were used as proteins to immobilize onto the CM5 sensor chip. NLRX1-WT was diluted in 10 mM sodium acetate buffer at pH 4.0 and immobilized onto the flow cell to a level of ˜3700 RU, using standard amine coupling chemistry. NLRX1-Mutant was diluted in 10 mM sodium acetate buffer at pH 4.0 and immobilized onto the flow cell to a level of ˜3100 RU, using standard amine coupling chemistry. 20 mM MOPS, 150 mM NaCl, 5 mM sodium acetate, 1 mM EDTA, 0.05% Tween-20, pH 8.0 buffer (Running buffer) was used as the immobilization running buffer. Based on the immobilized response values, theoretical Rmax values were calculated. The Rmax values assume 1:1 interaction mechanism. Overnight kinetics were performed for all analytes binding to the immobilized proteins. The kinetics experiments were performed in the μL/min. presence of running buffer+1% DMSO. The flow rate of all solutions was maintained at 50 Analyte concentrations were 0 μM, 2.5 μM, 5 μM 10 μM 20 μM and 40 μM."}, "[2]": {"system": "peripheral blood mononuclear cells (PBMCs) of Crohn's disease patients", "test": "Ex vivo treatment of PBMCs of Crohn's disease patients, flow cytometry", "assay_type": "cell-based, human", "protocol": "as §1, §2, §3"}, "[3]": {"details": "ulcerative colitis samples, 1 nM"}, "[4]": {"details": "ulcerative colitis samples, 1 to 100 nM, 24 h"}, "[5]": {"details": "PBMCs from Crohn's disease patients"}},
  "data": [
    {"smiles": "Cc1cccc(Oc2cc(Oc3cccc(C)n3)cc(Oc3cccc(C)n3)c2)n1", "note": "[NX-13, 1,3,5-tris (6-methylpyridin-2-yloxy) benzene]", "values": [
      {"measurement": "amount of TNFα present in each cell (mean fluorescent intensity)", "setting": "[1]; in a dose dependent manner", "result": "reduced"},
      {"measurement": "concentrations with significant reductions of IFNγ producing cells", "setting": "[1]; ulcerative colitis samples", "result": "≥ 10", "unit": "nM"},
      {"measurement": "concentrations with significant reductions of TNFα producing cells", "setting": "[1]; ulcerative colitis samples", "result": "≥ 10", "unit": "nM"},
      {"measurement": "IFNγ producing cells at 1 nM", "setting": "[1]; [3]", "result": "significant decrease"},
      {"measurement": "TNF producing cells at 1 nM", "setting": "[1]; [3]", "result": "significant reductions were not observed"},
      {"measurement": "percentage of IFNγ producing CD4+ T cells", "setting": "[1]; [4]", "result": "decreased"},
      {"measurement": "percentage of TNFα producing CD4+ T cells", "setting": "[1]; [4]", "result": "decreased"},
      {"measurement": "binding to NLRX1 by surface plasmon resonance (in words)", "setting": "Human NLRX1 (NLRX1-WT)", "result": "bind to NLRX1"},
      {"measurement": "Kd", "setting": "Human NLRX1 (NLRX1-WT); 1:1 binding model fitting, read-out: steady state dissociation constant KD", "result": 30.2, "unit": "µM"},
      {"measurement": "concentrations at which IFNγ+ cells decreased", "setting": "[2]", "result": "above 50 nM"},
      {"measurement": "concentrations at which IL10+ CD4+ T cells increased", "setting": "[2]", "result": "≥ 50", "unit": "nM"},
      {"measurement": "IFNγ+ cells", "setting": "[2]; [5]", "result": "Dose dependent decreases"},
      {"measurement": "IL-4 producing CD4+ T cells", "setting": "[2]; [5]", "result": "potently decreased"},
      {"measurement": "TNFα producing CD4+ T cells", "setting": "[2]; [5]", "result": "potently decreased"},
      {"measurement": "percentage of IL10+ CD4+ T cells", "setting": "[2]; [5]", "result": "increased"},
      {"measurement": "concentrations at which IL-4 producing CD4+ T cells decreased", "setting": "[2]; as low as", "result": "≥ 10", "unit": "nM"},
      {"measurement": "concentrations at which TNFα producing CD4+ T cells decreased", "setting": "[2]; as low as", "result": "≥ 10", "unit": "nM"}
    ]}
  ]
}
